Values after ≈ are worked out from the molar mass of the structure shown.
Key:
Serratia [1] = assay: Geometrical average of minimum inhibitory concentration was determined in isosensitest broth against Serratia; type: functional
Escherichia coli [2] = assay: In vivo protective dose was determined in infected swiss mice (120/strain) infected ip with Escherichia coli ISM with an inoculum size-0.5 mL of 10 E6 CFU/mL of suspension. Activity value range is 0.118-0.615; type: functional
Serratia [3] = assay: Geometrical average of minimum bactericidal concentration was determined in isosensitest broth against Serratia; type: functional
Escherichia coli [4] = assay: Geometrical average of minimum inhibitory concentration was determined in isosensitest broth against Escherichia coli; type: functional
Enterobacter [5] = assay: Geometrical average of minimum bactericidal concentration was determined in isosensitest broth against Enterobacter; type: functional
Bacillus [6] = assay: Geometrical average of minimum bactericidal concentration was determined in isosensitest broth against Bacillus; type: functional
Staphylococcus [7] = assay: (§1) Geometrical average of minimum inhibitory concentration was determined in isosensitest broth against Staphylococcus; type: functional
Klebsiella pneumoniae [8] = assay: In vivo protective dose was determined in infected swiss mice (120/strain) infected ip with Klebsiella pneumoniae 102 with an inoculum size-0.5 mL of 10 E5 CFU/mL of suspension. Activity value range is 1.82-7.92; type: functional
Sarcina [9] = assay: Geometrical average of minimum bactericidal concentration was determined in isosensitest broth against Sarcina; type: functional
Alcaligenes [10] = assay: Geometrical average of minimum bactericidal concentration was determined in isosensitest broth against Alcaligenes; type: functional
[11] = Geometrical average of minimum inhibitory concentration was determined in isosensitest broth against, gram-positive strains.; type: functional
Alcaligenes [12] = assay: Geometrical average of minimum inhibitory concentration was determined in isosensitest broth against Alcaligenes; type: functional
Staphylococcus [13] = assay: as §1; type: functional; remark: listed apart in the source
Pseudomonas [14] = assay: Geometrical average of minimum inhibitory concentration was determined in isosensitest broth against Pseudomonas; type: functional
Proteus [15] = assay: Geometrical average of minimum inhibitory concentration was determined in isosensitest broth against Proteus; type: functional, Proteus sp.
Streptococcus [16] = assay: Geometrical average of minimum inhibitory concentration was determined in isosensitest broth against Streptococcus; type: functional
Bacillus [17] = assay: Geometrical average of minimum inhibitory concentration was determined in isosensitest broth against Bacillus; type: functional
Salmonella [18] = assay: Geometrical average of minimum bactericidal concentration was determined in isosensitest broth against Salmonella; type: functional
[19] = Geometrical average of minimum inhibitory concentration in isosensitest broth against, gram-negative strains.; type: functional
Klebsiella pneumoniae [20] = assay: Minimum inhibitory concentration was determined against Klebsiella pneumoniae 102 with an inoculum size-0.5 mL of 10 E5 CFU/mL of suspension; type: functional
Escherichia coli [21] = assay: Geometrical average of minimum bactericidal concentration was determined in isosensitest broth against Escherichia coli; type: functional
Neisseria perflava [22] = assay: Geometrical average of minimum inhibitory concentration was determined in isosensitest broth against Neisseria perfl.; type: functional
Staphylococcus [23] = assay: (§2) Geometrical average of minimum bactericidal concentration was determined in isosensitest broth against Staphylococcus; type: functional
Proteus [24] = assay: Geometrical average of minimum bactericidal concentration was determined in isosensitest broth against Proteus; type: functional, Proteus sp.
Staphylococcus [25] = assay: as §2; type: functional; remark: listed apart in the source
Klebsiella [26] = assay: Geometrical average of minimum bactericidal concentration was determined in isosensitest broth against Klebsiella; type: functional
Salmonella [27] = assay: Geometrical average of minimum inhibitory concentration was determined in isosensitest broth against Salmonella; type: functional
Klebsiella [28] = assay: Geometrical average of minimum inhibitory concentration was determined in isosensitest broth against Klebsiella; type: functional
Pseudomonas [29] = assay: Geometrical average of minimum bactericidal concentration was determined in isosensitest broth against Pseudomonas; type: functional
Streptococcus [30] = assay: Geometrical average of minimum bactericidal concentration was determined in isosensitest broth against Streptococcus; type: functional
Neisseria perflava [31] = assay: Geometrical average of minimum bactericidal concentration was determined in isosensitest broth against Neisseria perfl.; type: functional
Enterobacter [32] = assay: Geometrical average of minimum inhibitory concentration was determined in isosensitest broth against Enterobacter; type: functional
Escherichia coli [33] = assay: Minimum inhibitory concentration was determined against Escherichia coli ISM with an inoculum size-0.5 mL of 10 E6 CFU/mL of suspension; type: functional
Sarcina [34] = assay: Geometrical average of minimum inhibitory concentration was determined in isosensitest broth against Sarcina; type: functional
[35] = Geometrical average of minimum inhibitory concentration was determined in isosensitest broth against gram-positive strains.; type: functional
[36] = Geometrical average of minimum inhibitory concentration was determined in isosensitest broth against gram-negative strains.; type: functional
Enterobacter [37] = assay: Geometrical average of minimum bactericidal concentration was determined in isosensitest against Enterobacter; type: functional
Sarcina [38] = assay: Geometrical average of minimum bactericidal concentration was determined in isosensitest against Sarcina; type: functional
Staphylococcus [39] = assay: (§3) Geometrical average of minimum bactericidal concentration was determined in isosensitest against Staphylococcus; type: functional
Alcaligenes [40] = assay: Geometrical average of minimum bactericidal concentration was determined in isosensitest against Alcaligenes; type: functional
Escherichia coli [41] = assay: Minimum inhibitory concentration against, Escherichia coli ISM with an inoculum size-0.5 mL of 10 E6 CFU/mL of suspension); type: functional
Salmonella typhimurium [42] = assay: Minimum inhibitory concentration against Salmonella Typhimurium T.O with an inoculum size-0.5 mL of 10 E6 CFU/mL of suspension; type: functional, Salmonella enterica subsp. enterica serovar Typhimurium; settings: Salmonella enterica
Escherichia coli [43] = assay: In vivo protective dose was determined in infected swiss mice (120/strain) infected ip with Escherichia coli ISM with an inoculum size-0.5 mL of 10 E6 CFU/mL of suspension. Activity value range is 3.47-6.63; type: functional
Staphylococcus [44] = assay: as §3; type: functional; remark: listed apart in the source
Bacillus [45] = assay: Geometrical average of minimum bactericidal concentration was determined in isosensitest against Bacillus; type: functional
Klebsiella pneumoniae [46] = assay: Minimum inhibitory concentration against Klebsiella pneumoniae 102 with an inoculum size-0.5 mL of 10 E5 CFU/mL of suspension; type: functional
Neisseria perflava [47] = assay: Geometrical average of minimum bactericidal concentration was determined in isosensitest against Neisseria perfl.; type: functional
Streptococcus [48] = assay: Geometrical average of minimum bactericidal concentration was determined in isosensitest against Streptococcus; type: functional
Sarcina [49] = assay: Geometrical average of minimum inhibitory concentration (MIC) in isosensitest broth against Sarcina; type: functional
Escherichia coli [50] = assay: Geometrical average of minimum bactericidal concentration was determined in isosensitest broth against, Escherichia coli; type: functional
[51] = Geometrical average of minimum inhibitory concentration was determined in isosensitest broth against,gram-negative strains.; type: functional
Klebsiella pneumoniae [52] = assay: In vivo protective dose was determined in infected swiss mice (120/strain) infected ip Klebsiella pneumoniae 102 with an inoculum size-0.5 mL of 10 E5 CFU/mL of suspension. Activity value range is 5.27-15.35; type: functional
Salmonella typhimurium [53] = assay: In vivo protective dose was determined in infected swiss mice (120/strain) infected ip against Salmonella Typhimurium T.O with an inoculum size-0.5 mL of 10 E6 CFU/mL of suspension; type: functional, Salmonella enterica subsp. enterica serovar Typhimurium; settings: Salmonella enterica

CO/N=C(\C(=O)N[C@@H]1C(=O)N2C(C(=O)O)=C(COC(C)=O)CS[C@H]12)c1csc(N)n1 [CEFOTAXIME]
MIC (Serratia [1]): 0.09 µg/mL (≈ 0.198 µM)
ED50 (Escherichia coli [2]): 0.27 mg/kg
MBC (Serratia [3]): 0.49 µg/mL (≈ 1.08 µM)
MIC (Escherichia coli [4]): 0.17 µg/mL (≈ 0.373 µM)
MBC (Enterobacter [5]): 1.97 µg/mL (≈ 4.33 µM)
MBC (Bacillus [6]): 29.7 µg/mL (≈ 65.3 µM)
MIC (Staphylococcus [7]): 1.61 µg/mL (≈ 3.53 µM)
ED50 (Klebsiella pneumoniae [8]): 3.8 mg/kg
MBC (Sarcina [9]): 0.04 µg/mL (≈ 0.0878 µM)
MBC (Alcaligenes [10]): 3.12 µg/mL (≈ 6.85 µM)
MIC [11]: 2.09 µg/mL (≈ 4.59 µM)
MIC (Alcaligenes [12]): 1.56 µg/mL (≈ 3.43 µM)
MIC (Staphylococcus [13]): 5.25 µg/mL (≈ 11.5 µM)
MIC (Pseudomonas [14]): 21.8 µg/mL (≈ 47.9 µM)
MIC (Proteus [15]): 0.08 µg/mL (≈ 0.176 µM)
MIC (Streptococcus [16]): 12.3 µg/mL (≈ 27.1 µM)
MIC (Bacillus [17]): 25 µg/mL (≈ 54.9 µM)
MBC (Salmonella [18]): 0.38 µg/mL (≈ 0.834 µM)
MIC [19]: 0.17 µg/mL (≈ 0.373 µM)
MIC (Klebsiella pneumoniae [20]): 0.13 µg/mL (≈ 0.285 µM)
MBC (Escherichia coli [21]): 0.25 µg/mL (≈ 0.549 µM)
MIC (Neisseria perflava [22]): < 0.09 µg/mL
MBC (Staphylococcus [23]): 3.23 µg/mL (≈ 7.09 µM)
MBC (Proteus [24]): 0.3 µg/mL (≈ 0.659 µM)
MBC (Staphylococcus [25]): 25 µg/mL (≈ 54.9 µM)
MBC (Klebsiella [26]): 0.14 µg/mL (≈ 0.307 µM)
MIC (Salmonella [27]): 0.24 µg/mL (≈ 0.527 µM)
MIC (Klebsiella [28]): 0.12 µg/mL (≈ 0.263 µM)
MBC (Pseudomonas [29]): 22.3 µg/mL (≈ 48.9 µM)
MBC (Streptococcus [30]): 35.4 µg/mL (≈ 77.6 µM)
MBC (Neisseria perflava [31]): < 0.09 µg/mL
MIC (Enterobacter [32]): 0.31 µg/mL (≈ 0.681 µM)
MIC (Escherichia coli [33]): 0.55 µg/mL (≈ 1.21 µM)
MIC (Sarcina [34]): 0.04 µg/mL (≈ 0.0878 µM)

Cn1nnnc1SCC1=C(C(=O)O)N2C(=O)[C@@H](NC(=O)/C(=N\NC(N)=O)c3csc(N)n3)[C@H]2SC1
MIC [35]: 18.6 µg/mL (≈ 34.6 µM)
MIC [36]: 3.54 µg/mL (≈ 6.56 µM)

Cn1nnnc1SCC1=C(C(=O)O)N2C(=O)[C@@H](NC(=O)/C(=N/NCC(=O)O)c3csc(N)n3)[C@H]2SC1
MIC [35]: 18 µg/mL (≈ 32.5 µM)
MIC [36]: 8.59 µg/mL (≈ 15.5 µM)

CO/N=C(\C(=O)N[C@@H]1C(=O)N2C(C(=O)O)=C(COC(N)=O)CS[C@H]12)c1ccco1 [CEFUROXIME]
MIC (Serratia [1]): 12.4 µg/mL (≈ 29.2 µM)
MBC (Enterobacter [37]): 25 µg/mL (≈ 58.9 µM)
MBC (Serratia [3]): 28 µg/mL (≈ 66 µM)
MIC (Escherichia coli [4]): 2.2 µg/mL (≈ 5.18 µM)
MBC (Sarcina [38]): 0.55 µg/mL (≈ 1.3 µM)
MIC (Staphylococcus [7]): 1.06 µg/mL (≈ 2.5 µM)
MIC [11]: 1.11 µg/mL (≈ 2.62 µM)
MBC (Staphylococcus [39]): 1.67 µg/mL (≈ 3.94 µM)
MIC (Alcaligenes [12]): 50 µg/mL (≈ 118 µM)
MIC (Staphylococcus [13]): 10.5 µg/mL (≈ 24.8 µM)
MIC (Pseudomonas [14]): > 100 µg/mL
MIC (Proteus [15]): 1.97 µg/mL (≈ 4.64 µM)
MBC (Alcaligenes [40]): 100 µg/mL (≈ 236 µM)
MIC (Streptococcus [16]): 15.1 µg/mL (≈ 35.7 µM)
MIC (Bacillus [17]): 35.4 µg/mL (≈ 83.3 µM)
MIC (Escherichia coli [41]): 2.2 µg/mL (≈ 5.18 µM)
MIC (Salmonella typhimurium [42]): 1.56 µg/mL (≈ 3.68 µM)
MBC (Salmonella [18]): 6.7 µg/mL (≈ 15.8 µM)
ED50 (Escherichia coli [43]): 4.8 mg/kg
MBC (Staphylococcus [44]): 17.7 µg/mL (≈ 41.7 µM)
MIC (Neisseria perflava [22]): 0.39 µg/mL (≈ 0.919 µM)
MBC (Bacillus [45]): 35.4 µg/mL (≈ 83.3 µM)
MBC (Proteus [24]): 3.9 µg/mL (≈ 9.19 µM)
MIC (Klebsiella pneumoniae [46]): 12.5 µg/mL (≈ 29.5 µM)
MBC (Neisseria perflava [47]): 0.78 µg/mL (≈ 1.84 µM)
MBC (Klebsiella [26]): 4.68 µg/mL (≈ 11 µM)
MIC (Salmonella [27]): 3.12 µg/mL (≈ 7.35 µM)
MBC (Streptococcus [48]): 59.5 µg/mL (≈ 140 µM)
MIC (Klebsiella [28]): 3.71 µg/mL (≈ 8.74 µM)
MBC (Pseudomonas [29]): > 100 µg/mL
MIC (Sarcina [49]): 0.39 µg/mL (≈ 0.919 µM)
MBC (Escherichia coli [50]): 4.42 µg/mL (≈ 10.4 µM)
MIC (Enterobacter [32]): 7.01 µg/mL (≈ 16.5 µM)
MIC [51]: 10.6 µg/mL (≈ 25.1 µM)
ED50 (Klebsiella pneumoniae [52]): 9 mg/kg
ED50 (Salmonella typhimurium [53]): > 90 mg/kg

CC(=O)OCC1=C(C(=O)O)N2C(=O)[C@@H](NC(=O)/C(=N/N)c3csc(N)n3)[C@H]2SC1
MIC [35]: 7.35 µg/mL (≈ 16.7 µM)
MIC [36]: 1.96 µg/mL (≈ 4.45 µM)

Cn1nnnc1SCC1=C(C(=O)O)N2C(=O)[C@@H](NC(=O)/C(=N/NC(N)=O)c3csc(N)n3)[C@H]2SC1
MIC [35]: 76.5 µg/mL (≈ 142 µM)
MIC [36]: 16.8 µg/mL (≈ 31.2 µM)

CCOC(=O)CN/N=C(/C(=O)N[C@@H]1C(=O)N2C(C(=O)O)=C(CSc3nnnn3C)CS[C@H]12)c1csc(N)n1
MIC [35]: 13.2 µg/mL (≈ 22.7 µM)
MIC [36]: 5.45 µg/mL (≈ 9.35 µM)

Source: ChEMBL document CHEMBL1123730, “Synthesis and pharmacological evaluation of a new class of 2-(2-aminothiazol-4-yl)-2-hydrazonoacetamido cephalosporins” (J Med Chem, 1987)
